Active and inactive are the calls of the source. No cut-off for these calls is given here.

Data set [1] deals with Alpha-synuclein (Homo sapiens) (UniProt P37840). In words: Binding affinity to human alpha-synuclein expressed in Escherichia coli BL21(DE3) assessed as compound-protein complex formation at ratio of 1:1 incubated at compound:protein ratio of 10:1 for 3 hrs by ESI-MS spectrum analysis.
Data set [2] in a line: Cytotoxicity against preformed fibrils-treated mouse TH-positive dopaminergic neurons at 0.1 to 10 uM incubated for 7 days by immunostaining analysis. It counts as toxicity, cell-based. Conditions: neuron, 168 h, dose 0.1-10 µM, time 7 day.

For the molecule `CN(C)C(=N)NCCS(=O)(=O)O`, the outcome in data set [1] was Active. The Activity entry in data set [2] is recorded as “Non-Toxic”.
